# Test results from patent US11866752B2, “Cysteine polysulfidation and mitochondrial bioenergetics regulated by cysteinyl-tRNA synthetase” (Bio-Xcelerator, Inc., priority 2018, dated 2024).
# T1: mouse CARS1 (Mus musculus, UniProt Q9ER72)
# T1 sequence (Q9ER72 1-748 isoform Q9ER72-2): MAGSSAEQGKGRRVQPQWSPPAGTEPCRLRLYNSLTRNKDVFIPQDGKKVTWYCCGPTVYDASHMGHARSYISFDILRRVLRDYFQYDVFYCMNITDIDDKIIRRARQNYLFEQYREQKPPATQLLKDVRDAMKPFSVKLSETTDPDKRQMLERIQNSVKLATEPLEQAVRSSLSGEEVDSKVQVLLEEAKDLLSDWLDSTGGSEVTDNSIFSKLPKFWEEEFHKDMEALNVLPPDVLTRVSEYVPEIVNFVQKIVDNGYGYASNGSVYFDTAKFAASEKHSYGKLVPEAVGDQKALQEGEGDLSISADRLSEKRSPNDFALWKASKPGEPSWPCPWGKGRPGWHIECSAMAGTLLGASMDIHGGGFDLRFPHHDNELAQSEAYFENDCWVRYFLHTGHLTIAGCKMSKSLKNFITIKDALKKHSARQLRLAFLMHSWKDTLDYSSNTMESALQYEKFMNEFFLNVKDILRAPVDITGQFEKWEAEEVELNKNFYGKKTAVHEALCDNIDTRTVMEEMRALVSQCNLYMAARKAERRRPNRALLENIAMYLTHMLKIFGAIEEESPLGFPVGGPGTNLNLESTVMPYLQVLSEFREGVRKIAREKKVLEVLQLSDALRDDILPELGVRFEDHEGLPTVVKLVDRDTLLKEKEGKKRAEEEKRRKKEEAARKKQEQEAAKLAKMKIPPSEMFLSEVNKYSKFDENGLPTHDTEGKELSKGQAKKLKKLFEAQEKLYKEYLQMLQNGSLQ
# T2: human CARS2 (Homo sapiens, UniProt Q9HA77)
# T2 sequence (Q9HA77 1-564): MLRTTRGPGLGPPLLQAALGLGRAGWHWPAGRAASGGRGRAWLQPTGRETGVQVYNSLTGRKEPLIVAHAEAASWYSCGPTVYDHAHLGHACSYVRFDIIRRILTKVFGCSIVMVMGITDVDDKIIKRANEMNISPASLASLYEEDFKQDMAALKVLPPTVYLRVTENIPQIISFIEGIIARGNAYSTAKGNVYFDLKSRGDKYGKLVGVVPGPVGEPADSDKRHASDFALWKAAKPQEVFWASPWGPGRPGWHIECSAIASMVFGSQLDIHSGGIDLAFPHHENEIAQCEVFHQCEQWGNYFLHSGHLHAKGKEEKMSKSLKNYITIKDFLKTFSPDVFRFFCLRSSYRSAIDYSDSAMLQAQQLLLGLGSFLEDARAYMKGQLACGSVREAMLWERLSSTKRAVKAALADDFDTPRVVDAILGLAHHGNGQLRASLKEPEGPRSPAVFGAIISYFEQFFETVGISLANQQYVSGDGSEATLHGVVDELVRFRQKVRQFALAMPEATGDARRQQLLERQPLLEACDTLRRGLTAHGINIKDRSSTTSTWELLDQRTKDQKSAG
# B1: CSE: cystathionine γ-lyase (cystathionase), recombinant rat and human (protein, UniProt P32929 1-405, looked up)
# Cystathionine gamma-lyase: MQEKDASSQGFLPHFQHFATQAIHVGQDPEQWTSRAVVPPISLSTTFKQGAPGQHSGFEYSRSGNPTRNCLEKAVAALDGAKYCLAFASGLAATVTITHLLKAGDQIICMDDVYGGTNRYFRQVASEFGLKISFVDCSKIKLLEAAITPETKLVWIETPTNPTQKVIDIEGCAHIVHKHGDIILVVDNTFMSPYFQRPLALGADISMYSATKYMNGHSDVVMGLVSVNCESLHNRLRFLQNSLGAVPSPIDCYLCNRGLKTLHVRMEKHFKNGMAVAQFLESNPWVEKVIYPGLPSHPQHELVKRQCTGCTGMVTFYIKGTLQHAEIFLKNLKLFTLAESLGGFESLAELPAIMTHASVLKNDRDVLGISDTLIRLSVGLEDEEDLLEDLDQALKAAHPPSGSHS
# modifications: also rat
# notes: cystathionine γ-lyase (cystathionase), recombinant rat and human
# B2: mouse CARS1: recombinant cytosolic cysteinyl-tRNA synthetase (protein, UniProt Q9ER72 2-831, looked up)
# Cysteine--tRNA ligase, …: AGSSAEQAADYRSILSISDEAARVQALDQHLSTRSYIQGYSLSQADVDVFRQLSAPPADSRLFHVARWFRHIEALLGGPQGRDEPCRLQASKGRRVQPQWSPPAGTEPCRLRLYNSLTRNKDVFIPQDGKKVTWYCCGPTVYDASHMGHARSYISFDILRRVLRDYFQYDVFYCMNITDIDDKIIRRARQNYLFEQYREQKPPATQLLKDVRDAMKPFSVKLSETTDPDKRQMLERIQNSVKLATEPLEQAVRSSLSGEEVDSKVQVLLEEAKDLLSDWLDSTGGSEVTDNSIFSKLPKFWEEEFHKDMEALNVLPPDVLTRVSEYVPEIVNFVQKIVDNGYGYASNGSVYFDTAKFAASEKHSYGKLVPEAVGDQKALQEGEGDLSISADRLSEKRSPNDFALWKASKPGEPSWPCPWGKGRPGWHIECSAMAGTLLGASMDIHGGGFDLRFPHHDNELAQSEAYFENDCWVRYFLHTGHLTIAGCKMSKSLKNFITIKDALKKHSARQLRLAFLMHSWKDTLDYSSNTMESALQYEKFMNEFFLNVKDILRAPVDITGQFEKWEAEEVELNKNFYGKKTAVHEALCDNIDTRTVMEEMRALVSQCNLYMAARKAERRRPNRALLENIAMYLTHMLKIFGAIEEESPLGFPVGGPGTNLNLESTVMPYLQVLSEFREGVRKIAREKKVLEVLQLSDALRDDILPELGVRFEDHEGLPTVVKLVDRDTLLKEKEGKKRAEEEKRRKKEEAARKKQEQEAAKLAKMKIPPSEMFLSEVNKYSKFDENGLPTHDTEGKELSKGQAKKLKKLFEAQEKLYKEYLQMLQNGSLQ
# What was measured:
# EcCARS = molecular target: T3, EcCARS (Escherichia coli, UniProt P21888); type: biochemical; details: for Persulfide generation by EcCARS with cysteine enantiomer as substrate: substrate enantioselectivity
# T3 construct: His tag (inferred from nickel-NTA purification); made in house
# Description: The data are means ±s.d. […] Data represent means ±s.d.
# ADH5 = molecular target: T4, ADH5 (Homo sapiens, UniProt P11766); assay: HPE-IAM labeling of ADH5 cysteine polysulfides, LC-ESI-MS/MS; details: treatment of ADH5
# T4 construct: made in house; host or cells: Escherichia coli
# Description: Redox property of cysteine and protein polysulfides. CysSSHhas unique redox-active properties that distinguishes it from the cysteine (CysSH) thiol. […] Moreover, dialkylpolysulfides can also be nucleophilic and electrophile-mediated cleavage of S—S bonds is established28. The unique properties and reactivity of polysulfides allowed us to develop several analytical techniques aimed at determining endogenous production of LMW and protein-bound polysulfides (Supplementary FIG. 3). We first developed a convenient method for selective detection of polysulfidated proteins: the biotin-polyethylene glycol (PEG)-conjugated maleimide (biotin-PEG-MAL) labeling gel shift assay (PMSA; Supplementary FIG. 3a)15. […] We then used liquid chromatography-electrospray ionizationtandem mass spectrometry (LC-ESI-MS/MS) with 0-(4-hydroxyphenyl) ethyl iodoacetamide (HPE-IAM) as a trapping agent to identify and precisely quantify various hydropolysulfides, and also to verify the site specificity of polysulfidation as well as the number of sulfur atoms involved in proteins (Supplementary FIG. 5, and Supplementary Table 2). […]
# mouse CARS1 = molecular target: T1, mouse CARS1; assay: CysSSH and CysSSSH biosynthesis by recombinant mouse CARS1
# human CARS2 = molecular target: T2, human CARS2; assay: CysSSH and CysSSSH biosynthesis by recombinant human CARS2
# [1] = tested on: mitochondrial ETC in HEK293T cells; assay: Effect of suppression of ETC on metabolic profiles of CysSSH; type: cell-based, human; details: HPE-IAM labeling LC-MS/MS
# Protocol: Effect of suppression of ETC on metabolic profiles of CysSSH. The mito-chondrial ETC in HEK293T cells was inhibited either by a complex III inhibitor, antimycin A, or by elimination of mitochondrial DNA (mtDNA) induced by ethidium bromide. For the direct but partial ETC (complex III) inhibition, WT and CARS2 KO cells were treated with various concentrations of antimycin A for 1 h, followed by methanol extraction for measurement of CysSSH and its related sulfide derivatives by HPE-IAM labeling LC-ESI-MS/MS analysis as described earlier. […] The quantity of each sulfide produced from CARS2 in the cells was determined by subtracting the amount of each sulfide in CARS2 KO HEK293T cells from that in the WT cells, after quantification of each metabolite via HPE-IAM labeling LC-MS/MS analysis. Changes in the amounts of CysSSH (ACysSSH) and HS— (AHS-) induced by complex III inhibition by antimycin A or by mtDNA elimination in WT and CARS2 KO HEK293T cells were then calculated.
# CSE = assay: Kinetic parameters of recombinant CSE with L-cystine as substrate; type: biochemical, rat and human
# T3 sequence (P21888 whole entry): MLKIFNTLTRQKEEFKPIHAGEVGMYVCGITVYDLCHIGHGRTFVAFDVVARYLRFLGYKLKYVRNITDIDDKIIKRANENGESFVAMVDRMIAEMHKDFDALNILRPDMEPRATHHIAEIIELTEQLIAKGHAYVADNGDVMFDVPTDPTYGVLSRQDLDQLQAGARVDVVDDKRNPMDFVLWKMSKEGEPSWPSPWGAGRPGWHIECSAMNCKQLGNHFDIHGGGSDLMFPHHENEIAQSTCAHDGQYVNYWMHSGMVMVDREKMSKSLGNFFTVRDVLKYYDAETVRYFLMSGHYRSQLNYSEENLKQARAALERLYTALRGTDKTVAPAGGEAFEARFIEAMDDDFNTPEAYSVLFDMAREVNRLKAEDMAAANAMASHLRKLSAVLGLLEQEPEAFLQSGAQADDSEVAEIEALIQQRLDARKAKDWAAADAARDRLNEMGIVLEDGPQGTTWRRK
# T4 sequence (P11766 whole entry, species assumed): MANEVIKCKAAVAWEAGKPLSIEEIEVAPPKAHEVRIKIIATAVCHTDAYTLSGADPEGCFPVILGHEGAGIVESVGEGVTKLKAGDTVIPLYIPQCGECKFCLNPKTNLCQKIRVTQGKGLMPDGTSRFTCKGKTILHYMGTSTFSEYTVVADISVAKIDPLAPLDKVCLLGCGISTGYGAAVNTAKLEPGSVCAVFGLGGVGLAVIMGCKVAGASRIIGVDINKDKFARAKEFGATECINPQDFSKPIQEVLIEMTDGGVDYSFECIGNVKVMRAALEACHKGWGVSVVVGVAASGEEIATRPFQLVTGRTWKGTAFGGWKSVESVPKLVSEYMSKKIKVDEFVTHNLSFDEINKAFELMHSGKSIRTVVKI
molecule,measurement,setting,value
Nc1ncnc2c1ncn2[C@@H]1O[C@H](COP(=O)(O)OP(=O)(O)OP(=O)(O)O)[C@@H](O)[C@H]1O [ATP],Dependence of persulfide synthase activity of EcCARS on added factor,EcCARS,but not on ATP
N[C@H](CS)C(=O)O [D-cysteine],Persulfide generation by EcCARS with cysteine enantiomer as substrate,EcCARS,but not D-cysteine demonstrated activity
N[C@@H](CS)C(=O)O [L-cysteine],Persulfide generation by EcCARS with cysteine enantiomer as substrate,EcCARS,demonstrated activity
CCN1C(=O)C=CC1=O [N-ethylmaleimide],HPE-IAM labeling of CysSH and CysSSH/SSSH of ADH5,ADH5,completely abrogated
Cc1ncc(COP(=O)(O)O)c(C=O)c1O [pyridoxal phosphate],Dependence of persulfide synthase activity of EcCARS on added factor,EcCARS,depended partly
same,Dependence of CysS-(S)n-H producing activity on PLP,mouse CARS1; mouse CARS1,depended on the presence of PLP
same,Dependence of CysS-(S)n-H producing activity on PLP,human CARS2; human CARS2,depended on the presence of PLP
same,Cysteine persulfide production in reaction mixture of cysteine and PLP alone,"human CARS2; no enzyme, no >100 μM PLP",No appreciable cysteine persulfide production was detected
antimycin A,Change in CysSSH,[1],significant increase
same,Change in HS- production,[1],reduction
B1,Km,CSE,> 200 µM
B2,CysS-(S)n-H producing activity,mouse CARS1; recombinant mouse CARS1,strong
